Assay results as given in patent US12612411B1, “Imidazopyrazine derivatives, process for preparation thereof, and their uses as luciferins” (INSTITUT PASTEUR, priority 2017, dated 2026).

Legend:
nanoKAZ luciferase = target: T1, nanoKAZ luciferase (Oplophorus gracilirostris, UniProt Q9GV45, A31E/A60N/A81I/F95D/I117V/K70R/L54V/L99Q/M102K/N193R/P142E/Q151K/Q38R/Q45L/V71I/Y165I); experiment: In vitro bioluminescence screening of imidazo[1,2-a]pyrazin-3(7H)-ones with nanoKAZ expressed in vitro (96-well luminometer, 2 h kinetic); format: biochemical; conditions: Table 1; furimazine = 1
T1 construct: luciferase catalytic domain (nanoKAZ, 19 kDa) from the Oplophorus-derived luciferase; host or cells: cell-free: 1-Step Human Coupled IVT Kit, pT7CFE1-based vector
Outline: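 nanoKAZ made by human coupled IVT, diluted 400-fold then 1/20 in DPBS + 0.1% Tween 20; luciferins generated in situ by acid hydrolysis of O-acetyl precursors (DMSO/acidic ethanol, 50 °C, 2 h). Luminescence followed kinetically for 2 h; max intensity, signal half-life and 10-min and 2-h AUC normalized to furimazine.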

nanoKAZ [1] = target: T2, nanoKAZ (Oplophorus gracilirostris, UniProt Q9GV45, A31E/A60N/A81I/F95D/I117V/K70R/L54V/L99Q/M102K/N193R/P142E/Q151K/Q38R/Q45L/V71I/Y165I); experiment: Michaelis-Menten parameters of nanoKAZ from Lineweaver-Burk representation; format: biochemical; conditions: extrapolated from Lineweaver-Burk, constant enzyme concentration
T2 construct: luciferase catalytic domain (nanoKAZ, 19 kDa) from the Oplophorus-derived luciferase
Description: The two dotted lines (linear regression) are converging to the same intercept with the x-axis (−1/Km) and different intercepts with the y-axis (1/Vmax). The equations of the two linear regressions are indicated and the corresponding correlation factors (R^2) with the experimental data are reported.
Considering the hypothesis of a Michaelis-Menten mechanism for the nanoKAZ, the Km and Vmax were extrapolated from the Lineweaver-Burk representation of the enzyme activity catalyzing either Q-1 or Q-3. […] The data have been fitted with linear regression with satisfying high correlation factors (R). The Km are the same for both substrates (Km=2 μM) whereas the Vmax is 3-times lower for Q-1 (0.6·10^6 RLU/sec) than for Q-3 (2.0·10^6 RLU/sec).

nanoKAZ [2] = target: T2, nanoKAZ; experiment: Dynamic range of nanoKAZ bioluminescence versus serial enzyme dilutions; format: biochemical; conditions: constant volume 100 μL, constant substrate concentration
Procedure: FIG. 3 illustrates dynamic range (relative units (RLU) versus serial dilutions) of nanok AZ, which was plotted using the imidazo[1,2-a]pyrazin-3(7H)-one Q-3.
As depicted in FIG. 3, the dynamic range of nanoKAZ was assessed using luciferin Q-3. The enzyme was diluted three by three times and the bioluminescence has been measured on a constant volume (100 (L) and at constant concentration of the substrate. The bioluminescence is linear with the enzyme concentration over 5 orders of magnitude, overwhelming the detection system. This range can be increase by two orders of magnitude by decreasing 2 times the volume for high enzyme concentration and by increasing two times the volume for low enzyme concentration.

[3] = test system: protein chimeras fused to the nanoKAZ in transiently transfected HEK and Jurkat cell lines, and primary human T-cells; experiment: In cellulo bioluminescence imaging with a light microscope; format: cell-based; conditions: images acquired for one second from live cells, FIG. 5
Description: FIG. 5 compares expression and location of protein chimeras fused to the nanoKAZ in transiently transfected HEK and Jurkat cell lines, and primary human T-cells: the cytokine receptor IL7Rα:nanoKAZ at the membrane (top), the enconsin tubulin binding protein EMTB:nanoKAZ associated with microtubules (middle), the transcription factor STAT5a:nanoKAZ dense throughout the cytoplasm and faint in the nucleus (bottom).
The acquisition of bioluminescence using a light microscope provides a quantitative measurement of light emission cell by cell, the main advantage. This is meaningful especially when the transfection efficiency is low in the case of nanoKAZ expression provided by plasmids. […] The higher is the bioluminescence efficiency, the lower is the exposure time and the lower is the sensitivity required for the detector or camera. NanoKAZ with developed substrates such as Q-3 or Q-12 opens the bioluminescence imaging to standard light microscope. The lower the exposure time, the higher the resolution, which is impeded by the motion of living cells. Any gain in light emission enhances the quality of images. Luciferase reporters or fragments can be fused to proteins targeting the cell surface, cytoplasm, organelles, nucleus or exosomes and can be carried by virus, host-infecting cells or agents, biologic complexes, beads or any particles. […]

nanoKAZ [4] = target: T2, nanoKAZ; experiment: Bioluminescence emission spectra; format: biochemical
Description: (§1) Furimazine (Q-1) and derivatives have emission spectra centred on 460 nm but present large peaks bleeding beyond 580 nm. The bioluminescence obtained with the analogue Q-3 provides photons with 10% of them having a wavelength beyond 560 nm up to 600 nm. This wide spectra emission toward red is thus allowing the use of the nanok AZ/furimazine for in vivo imaging. The light emission beyond 580 is thousands times higher than red emitting firefly or beetle luciferases. IL7:nanoKAZ and analogue Q-3 were injected in mice.

IL7:nanoKAZ = experiment: In vivo bioluminescence imaging (Ivis) after injection of IL7:nanoKAZ and substrate; conditions: IL7:nanoKAZ and substrate injected in mice
Description: as §1

T1 sequence (Q9GV45 other isoform, or with tags, fused parts or gaps with the stated changes): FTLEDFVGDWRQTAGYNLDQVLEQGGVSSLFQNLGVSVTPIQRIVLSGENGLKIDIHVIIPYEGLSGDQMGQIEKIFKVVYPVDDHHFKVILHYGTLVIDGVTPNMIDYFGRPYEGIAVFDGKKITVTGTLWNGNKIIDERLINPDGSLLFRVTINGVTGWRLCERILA
T2 sequence (Q9GV45 other isoform, or with tags, fused parts or gaps with the stated changes): as above

Cc1ccc(Cc2nc3c(Cc4ccccc4)[nH]c(-c4ccccc4)cn-3c2=O)o1 [Q-3, 8-benzyl-2-((5-methylfuran-2-yl)methyl)-6-phenylimidazo[1,2-a]pyrazin-3(7H)-one]
V1: maximum intensity, normalized using furimazine (Q-1) as a reference (nanoKAZ luciferase): 2.7 | V3: area under the curve for ten minutes, normalized using furimazine (Q-1) as a reference (nanoKAZ luciferase): 2.39 | V4: area under the curve for two hours, normalized using furimazine (Q-1) as a reference (nanoKAZ luciferase): 1.3 | Vmax (nanoKAZ [1]): 2.0·10^6 RLU/sec | range over which bioluminescence is linear with the enzyme concentration (nanoKAZ [2]): 5 orders of magnitude | light emission in live-cell images compared with Q-1 [3]: gain of light emission | photons having a wavelength beyond 560 nm up to 600 nm (nanoKAZ [4]): 10% | in vivo bioluminescence image quality (IL7:nanoKAZ): Quantitative images of high quality were acquired
